Data from US20080260896A1 (priority 2007, published 2008).
Marks after values point to notes of the source that are not given here.

Columns and labels:
[1] = Crude glycerin in finishing cattle diets: carcass merit; format: in vivo, Angus-cross steers; conditions: for Adjusted Carcass Live Wt / Backfat Depth / Choice 0 / Choice - / Dress / Hot Carcass Weight / KPH Fat / Live Weight / Marbling Score / Ribeye Area / YG 2 / YG 3 / YG 4 / Yield Grade / Carcass Value: 10% DM glycerin; for Carcass Value: calculated from carcass weight, premiums and discounts
Protocol: All cattle were adapted on a common 4-step transition prior to initiation of the evaluation. Cattle were blocked by weight (4 blocks) with four pens per treatment (9-10 head/pen). […] Individual weights were collected at 28-day intervals throughout with steers terminated on three harvest dates (days on feed 116 to 153 days) based on weight and condition. Six monthly periods and cumulative (d 1-116 and 1-153) periods were analyzed. […] Carcass value was calculated using actual carcass weight and associated premiums and discounts for quality and yield grades.

[2] = Methanol concentration of stored crude glycerin; format: physicochemical; conditions: stored in sealed totes approximately 5 months, analyzed in duplicate; certificate of analysis 800 ppm
Excerpt: A subset of ten cattle (5 from each treatment) were used for baseline and withdrawal sampling of rumen fluid and blood plasma for residual methanol quantification. […] Withdrawal samples were collected from the same subset of animals.

[3] = Crude glycerin as an energy source in swine nursery diets; format: in vivo; conditions: nursery pigs
Protocol: In yet another embodiment, crude glycerin was evaluated as an energy source in swine nursery diets. A total of 165 pigs (Monsanto Choice Genetics, EB x GP37; initial weight: 7.14 kg) were used to determine the effect of […] on performance of nursery pigs. Pigs were blocked by initial weight to one of five dietary treatments with seven pens per treatment and four or five pigs per pen. […] The basal diets were close to a typical corn-SBM diet with no animal fat added. […] Dietary protein, lysine (amino acid ratios), major minerals, and vitamins were equal across treatments within each phase. […] Dietary lysine levels were high enough to […] to observe energy effect. Feeding programs of Momentum grind-mix option (15-25, 25-35 and 35-50 lbs. BW) was the base program. The trial had four phases with 7, 7, 7, and 9 days, respectively. Before the pigs started the trial, the pigs were fed a common diet until the pigs weighed about 15.5 pounds. Medication choice for diets in this embodiment was Carbadox. The assumed ME value for crude glycerin was based on preliminary research data from Europe. […] Feed efficiency data was regressed against daily ME intake to estimate ME content for crude glycerin. […] The crude glycerin's energy value should be similar to or lower than corn.

[4] = DDGS:Soy Hulls 10:0 diet (Treatment 2)
[5] = DDGS:Soy Hulls 30:15 diet (Treatment 4)

OCC(O)CO [crude glycerin, glycerin]
Adjusted Carcass Live Wt [1, 4]: 567.9^a kg | Backfat Depth [1, 4]: 1.40 cm | Choice 0 [1, 4]: 66.7% | Choice - [1, 4]: 94.4% | Dress [1, 4]: 61.59% | Hot Carcass Weight [1, 4]: 357.7^a kg | KPH Fat [1, 4]: 1.90% | Live Weight [1, 4]: 581.0^a kg | Marbling Score [1, 4]: 623.1 | Ribeye Area [1, 4]: 85.49 sq cm | YG 2 [1, 4]: 44.4% | YG 3 [1, 4]: 55.6% | YG 4 [1, 4]: 0.0% | Yield Grade [1, 4]: 3.01 | Carcass Value [1, 4]: 1038.6^a | Adjusted Carcass Live Wt [1, 5]: 551.4^ab kg | Backfat Depth [1, 5]: 1.48 cm | Choice 0 [1, 5]: 65.0% | Choice - [1, 5]: 95.0% | Dress [1, 5]: 61.65% | Hot Carcass Weight [1, 5]: 347.4^ab kg | KPH Fat [1, 5]: 1.87% | Live Weight [1, 5]: 563.3^ab kg | Marbling Score [1, 5]: 630.1 | Ribeye Area [1, 5]: 84.86 sq cm | YG 2 [1, 5]: 45.0% | YG 3 [1, 5]: 55.0% | YG 4 [1, 5]: 0.0% | Yield Grade [1, 5]: 3.07 | Carcass Value [1, 5]: 1008.5^ab | Adjusted Carcass Live Wt ([1]; main effect over both diets): 559.6 kg | Backfat Depth ([1]; main effect over both diets): 1.44 cm | Choice 0 ([1]; main effect over both diets): 65.8% | Choice - ([1]; main effect over both diets): 94.7% | Dress ([1]; main effect over both diets): 61.62% | Hot Carcass Weight ([1]; main effect over both diets): 352.6 kg | KPH Fat ([1]; main effect over both diets): 1.88% | Live Weight ([1]; main effect over both diets): 572.2 kg | Marbling Score ([1]; main effect over both diets): 626.6 | Ribeye Area ([1]; main effect over both diets): 85.18 sq cm | YG 2 ([1]; main effect over both diets): 44.7% | YG 3 ([1]; main effect over both diets): 55.3% | YG 4 ([1]; main effect over both diets): 0.0% | Yield Grade ([1]; main effect over both diets): 3.04 | Carcass Value ([1]; main effect over both diets): 1023.5 | final and hot carcass weight, ribeye area, carcass value versus control ([1]; steers fed 10% crude glycerin): tended (P<0.10) to have greater final and hot carcass weight, ribeye area, and resulting carcass value | methanol concentration of crude glycerin samples [2]: 756 ppm | daily gain ([3]; phase 4, increasing dietary crude glycerin): decreased in phase 4 in a linear and quadratic manner | Feed intake ([3]; phases 2, 3, 4 and cumulative phases 1-2, 1-3, 1-4, increasing dietary crude glycerin): linearly increased | daily gain ([3]; up to 12% crude glycerin): did not affect daily gain
